Test results: PMC12268802, “The herbicidal natural product phosphonothrixin is an inhibitor of the riboflavin biosynthetic enzyme L‐3,4‐dihydroxy‐2‐butanone‐4‐phosphate synthase” (Pest Management Science, 2025)

Columns and labels:
[1] = tested on: imidazoleglycerol phosphate dehydratase; design: method as in PMID 12228396; details: cited from earlier work
[2] = cited from earlier work
EPSP synthase = tested on: EPSP synthase; design: method as in PMID 1939260; details: from several higher plants; cited from earlier work
Lemna gibba = Lemna gibba growth assay; type: in vivo; details: 7 days
Description: Growth experiments were performed in sterile 6‐well cell culture plates and were initiated by transferring four Lemna gibba fronds per well to 5 mL of K‐medium[22] pH 4.8 containing 1% (w/v) sucrose and a selected concentration of phosphonothrixin (1) and riboflavin determined from previous experiments. The cell culture plates were incubated for 7 days in a growth cabinet at 22 °C and a continuous photon flux density of 75 μE/m^2s.

[3] = target: dihydroxy‐acid dehydratase; design: method as in PMID 29995859; details: Arabidopsis enzyme; cited from earlier work
DHBPS activity assay = substrate: O=C(CO)[C@H](O)[C@H](O)COP(=O)(O)O; test: DHBPS activity assay; type: biochemical, Arabidopsis thaliana; details: other: substrate varied 0 to 2 mM; pH 6.5
Description: DHBPS activity assays were out carried in 96‐well microtiter plates using a modification of the procedure previously described.[18] The reaction mixture contained 100 mM MES (2‐morpholinoethanesulfonic acid) buffer pH 6.5, 20 mM MgCl2, 20 mM D‐ribose‐5‐phosphate (Sigma‐Aldrich R7750), 0.02% Tween‐20, 0.2 mg BSA, 0.5 μg of spinach phosphoriboisomerase (Sigma‐Aldrich P9752) and DHBPS enzyme in a final volume of 110 μL. Assays were initiated by adding enzyme and terminated after 120 min incubation at rt by the addition of 90 μL of a solution of 3.5% α‐naphthol and 0.2% creatine in 2 N NaOH. After an additional 45 min incubation at rt the absorbance was determined at 540 nm. The pI50‐value for inhibition by phosphonothrixin (1) was determined with the XLFit Excel add‐in version 4.3.1 curve fitting program of ID Business Solutions Limited. […] Reaction velocities were fitted to the Michaelis–Menten equation with the XLFit curve fitting program.

[4] = 50 μM riboflavin in the presence of 100 μM phosphonothrixin

O=P(O)(O)[C@H]1CCC[C@@](O)(c2nc[nH]n2)C1 (relative stereo) [IRL1803, trans‐(3‐hydroxy‐3‐(1H‐1,2,4‐triazol‐3‐yl)cyclohexyl)‐phosphonic acid]
potency against imidazoleglycerol phosphate dehydratase [1]: nanomolar inhibitor
application rate required for a significant herbicidal effect [2]: ~1 kg ha^−1

O=C(O)CNCP(=O)(O)O [glyphosate]
IC50-values, EPSP synthase (EPSP synthase): single and double‐digit micromolar range

Cc1cc2nc3c(=O)[nH]c(=O)nc-3n(C[C@H](O)[C@H](O)[C@H](O)CO)c2cc1C [riboflavin]
bleaching of Lemna gibba fronds (Lemna gibba; 50 μM riboflavin alone): some mild bleaching of the fronds
growth of Lemna gibba (Lemna gibba; 50 μM riboflavin alone): did not affect the growth
reversal of bleaching of Lemna gibba (Lemna gibba; [4]): reversed the bleaching phenotype to the level observed in the experiment where only riboflavin had been applied
reversal of growth inhibition of Lemna gibba (Lemna gibba; [4]): almost completely alleviated the growth inhibition

aspterric acid
IC50 [3]: 0.5 µM

B1: AtDHBPS (Arabidopsis thaliana) (protein)
chain: MFVAEDDDFELDLPTPGFSSIPEAIEDIRQGKLVVVVDDEDRENEGDLVMAAQLATPEAMAFIVRHGTGIVCVSMKEDDLERLHLPLMVNQKENEEKLSTAFTVTVDAKHGTTTGVSARDRATTILSLASRDSKPEDFNRPGHIFPLKYREGGVLKRAGHTEASVDLTVLAGLDPVGVLCEIVDDDGSMARLPKLREFAAENNLKVVSIADLIRYRRKRDKLVERASKGGRADPAFLYKVVINSKLEGKPIPNPLLGLDSTRTGHHHHHH
notes: made in house; host or cells: Escherichia coli BL21(DE3)
Km (DHBPS activity assay): 150 ± 20 µM
